Data published in patent US20100144729A1, “COUMARIN DERIVATIVES” (priority 2007, published 2010).

What was measured:
[1] = molecular target: T1, S1P1 (EDG-1) (Homo sapiens, UniProt P21453); experiment: GPCR activation assay measuring GTP [γ-35S] binding to membranes from CHO cells expressing human EDG receptors (S1P1); format: biochemical; conditions: CHO cell membranes expressing human EDG-1, read-out: S1P-1 EC50
T1 construct: c-myc (N); expressed in transfected cells; homogenized membranes
Experimental: A.1 In Vitro: GPCR Activation Assay Measuring GTP [γ-^35S] Binding to Membranes Prepared From CHO Cells Expressing Human EDG Receptors
S1P1 (EDG-1) GTP [γ-^35S] binding assay: Homogenized membranes are prepared from CHO cell clones stably expressing a human EDG-1 N-terminal c-myc tag. Cells are grown in suspension in two 850 cm^2 roller bottles for three or fours days before harvesting. The cells are centrifuged down, washed once with cold PBS, and resuspended in ≦20 ml of Buffer A (20 mM HEPES, pH 7.4, 10 mM EDTA, EDTA-free complete protease inhibitor cocktail [1 tablet/25 ml]). The cell suspension is homogenized on ice, using a Polytron homogenizer at 30000 rpm at three intervals of 15 seconds each. The homogenate is first centrifuged at 2000 rpm on a tabletop low speed centrifuge for 10 minutes. The supernatant, after passing through a cell strainer, is then re-centrifuged at 50,000×g for 25 minutes at 4° C. The pellet is resuspended into buffer B (15% glycerol, 20 mM HEPES, pH 7.4, 0.1 mM EDTA, EDTA-free complete protease inhibitor cocktail [1 tablet/10 ml]). Protein concentration of the preparation is determined using the BCA Protein Assay kit (Pierce) using BSA as standard. The membranes are aliquoted and kept frozen at −80° C.
Solutions of test compounds ranging from 10 mM to 0.01 nM are prepared in DMSO. S1P is diluted in 4% BSA solution as positive controls. The desired amount of membrane preparation is diluted with ice-cold assay buffer (20 mM HEPES, pH 7.4, 100 mM NaCl, 10 mM MgCl2, 0.1% Fatty acid-free BSA, 5 μM GDP) and vortexed well. 2 μl or less of compound is distributed into each well of a round-bottom 96-well polystyrene assay plate, followed by addition of 100 μl of diluted membranes (3-10 μg/well) and kept on ice until the addition of hot GTPγS. [^35S]-GTPγS is diluted 1:1000 (v/v) with cold assay buffer and 100 μl is added into each well. The reaction is carried out at room temperature for 90 minutes before the membranes are harvested onto Perkin-Elmer Unifilter® GF/B-96 filter plate using a Packard Filtermate Harvester. After several washes with wash buffer (20 mM HEPES, pH 7.4, 100 mM NaCl, 10 mM MgCl2), and a rinse with 95% ethanol, the filter is dried in a 37° C. oven for 30 minutes. MicroScint-20 is added and the plate sealed for scintillation counting on TopCount. EC50 values are obtained by fitting the GTP [γ-^35S] binding curves (raw data) with the dose response curve-fitting tool of GraphPad Prism. Six or twelve different concentrations are used to generate a concentration response curve (using three data points per concentration).

[2] = molecular target: T2, S1P-4 (Homo sapiens, UniProt O95977); experiment: FLIPR calcium flux assay, S1P-4; format: cell-based; conditions: CHO cells expressing S1P receptor
T2 construct: expressed in transfected cells; host or cells: CHO cells under G418 selection
T2 sequence (O95977 1-384): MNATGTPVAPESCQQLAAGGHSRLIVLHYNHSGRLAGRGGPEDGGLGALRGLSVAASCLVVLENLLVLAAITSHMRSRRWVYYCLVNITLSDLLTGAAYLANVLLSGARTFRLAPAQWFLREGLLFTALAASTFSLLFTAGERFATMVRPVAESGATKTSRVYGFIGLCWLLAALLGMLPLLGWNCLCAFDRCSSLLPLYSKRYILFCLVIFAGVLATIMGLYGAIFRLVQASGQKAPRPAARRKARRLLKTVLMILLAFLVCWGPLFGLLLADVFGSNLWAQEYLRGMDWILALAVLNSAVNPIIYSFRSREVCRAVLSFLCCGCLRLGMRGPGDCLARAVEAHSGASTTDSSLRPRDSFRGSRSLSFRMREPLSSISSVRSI
Experimental: (§1) Compounds of the invention are tested for agonist activity on S1P1, S1P3, S1P5, and […] with a FLIPR calcium flux assay. Briefly, CHO cells expressing an S1P receptor are maintained in F-12K medium (ATCC), containing 5% FBS, with 500 ug/ml of G418. Prior to the assay, the cells are plated in 384 black clear bottom plates at the density of 10,000 cells/well/25 ? l in the medium of F-12K containing 1% FBS. The second day, the cells are washed three times (25 μl/each) with washing buffer. About 25 μl of dye are added to each well and incubated for 1 hour at 37° C. and 5% CO2. The cells are then washed four times with washing buffer (25 μl/each). The calcium flux is assayed after adding 25 μl of SEW2871 (published by Rosen et al., used as reference) solution to each well of cells. The same assay is performed with cells expressing each of the different S1P receptors. Titration in the FLIPR calcium flux assay is recorded over a 3-minute interval, and quantitated as maximal peak height percentage response relative to S1P-1 activation. The compounds of the invention are active in this assay at a concentration of from 10^−12 and 3.10^−[…]. For example example 13 as an EC50 92 nm for S1P-1 and an EC50>1 um for all the other isoforms (S1P-2, S1P-3, S1P-4, S1P-5).

[3] = molecular target: T3, S1P-5 (Homo sapiens, UniProt Q9H228); experiment: FLIPR calcium flux assay, S1P-5; format: cell-based; conditions: CHO cells expressing S1P receptor
T3 construct: expressed in transfected cells; host or cells: CHO cells under G418 selection
T3 sequence (Q9H228 whole entry): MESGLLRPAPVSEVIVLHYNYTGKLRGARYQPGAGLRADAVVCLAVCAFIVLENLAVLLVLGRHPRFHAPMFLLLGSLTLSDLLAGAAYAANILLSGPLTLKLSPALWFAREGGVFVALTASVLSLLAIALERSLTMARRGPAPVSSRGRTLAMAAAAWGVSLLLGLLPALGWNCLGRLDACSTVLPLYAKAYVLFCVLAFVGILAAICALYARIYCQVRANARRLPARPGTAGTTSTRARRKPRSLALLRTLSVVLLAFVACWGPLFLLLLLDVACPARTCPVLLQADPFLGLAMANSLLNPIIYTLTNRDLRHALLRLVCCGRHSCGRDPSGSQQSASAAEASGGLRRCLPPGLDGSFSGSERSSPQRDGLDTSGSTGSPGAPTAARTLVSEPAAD
Experimental: as §1

[4] = molecular target: T4, S1P-3 (Homo sapiens, UniProt Q99500); experiment: FLIPR calcium flux assay, S1P-3; format: cell-based; conditions: CHO cells expressing S1P receptor
T4 construct: expressed in transfected cells; host or cells: CHO cells under G418 selection
T4 sequence (Q99500 whole entry): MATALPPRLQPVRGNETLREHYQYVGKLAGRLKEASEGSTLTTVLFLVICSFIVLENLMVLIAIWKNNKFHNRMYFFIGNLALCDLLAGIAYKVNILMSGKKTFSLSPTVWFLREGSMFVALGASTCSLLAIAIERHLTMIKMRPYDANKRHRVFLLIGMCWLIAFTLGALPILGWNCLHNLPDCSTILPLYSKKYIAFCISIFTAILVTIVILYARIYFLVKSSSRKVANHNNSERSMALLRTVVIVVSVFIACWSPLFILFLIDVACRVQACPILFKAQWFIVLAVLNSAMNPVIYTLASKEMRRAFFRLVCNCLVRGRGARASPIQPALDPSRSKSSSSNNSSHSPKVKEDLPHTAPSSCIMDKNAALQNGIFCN
Experimental: as §1

[5] = molecular target: T5, S1P-2 (Homo sapiens, UniProt O95136); experiment: FLIPR calcium flux assay, S1P-2; format: cell-based; conditions: CHO cells expressing S1P receptor
T5 construct: expressed in transfected cells; host or cells: CHO cells under G418 selection
T5 sequence (O95136 whole entry): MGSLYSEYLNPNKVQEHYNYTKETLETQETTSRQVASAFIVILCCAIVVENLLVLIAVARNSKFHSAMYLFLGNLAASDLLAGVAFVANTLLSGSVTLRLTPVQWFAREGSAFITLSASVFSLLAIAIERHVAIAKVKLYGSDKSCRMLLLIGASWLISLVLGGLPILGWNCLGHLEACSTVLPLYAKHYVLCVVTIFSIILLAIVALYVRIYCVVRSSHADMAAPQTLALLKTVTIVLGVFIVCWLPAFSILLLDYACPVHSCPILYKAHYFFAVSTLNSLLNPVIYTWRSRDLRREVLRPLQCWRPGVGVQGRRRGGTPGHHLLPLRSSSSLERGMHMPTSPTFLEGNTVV
Experimental: as §1

[6] = molecular target: T6, S1P-1 (Homo sapiens, UniProt P21453); experiment: FLIPR calcium flux assay, S1P-1; format: cell-based; conditions: CHO cells expressing S1P receptor
T6 construct: expressed in transfected cells; host or cells: CHO cells under G418 selection
T6 sequence (P21453 whole entry): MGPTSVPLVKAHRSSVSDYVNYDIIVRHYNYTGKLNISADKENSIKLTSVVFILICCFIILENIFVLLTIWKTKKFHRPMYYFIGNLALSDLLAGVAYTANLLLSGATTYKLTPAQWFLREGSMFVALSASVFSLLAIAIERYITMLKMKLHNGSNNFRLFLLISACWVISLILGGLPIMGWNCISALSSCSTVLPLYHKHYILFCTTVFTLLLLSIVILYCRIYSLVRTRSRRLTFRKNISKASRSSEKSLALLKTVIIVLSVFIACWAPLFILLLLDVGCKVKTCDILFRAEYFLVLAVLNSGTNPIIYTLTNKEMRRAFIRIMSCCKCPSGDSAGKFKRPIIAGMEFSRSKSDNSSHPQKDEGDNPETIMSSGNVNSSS
Experimental: as §1

T1 sequence (P21453 whole entry): as above

SMILES	EC50 [1]	also measured
CCOc1c(OC)ccc2cc(C(=O)Nc3ccc([C@H]4CCCN4)cc3)c(=O)oc12 [Example 8]	7.5 nM	
CCCc1c(OC)ccc2cc(C(=O)Nc3ccc(C4CCCN4C)cc3)c(=O)oc12 (racemic) [Example 13]		EC50 [2]: > 1000 nM; EC50 [3]: > 1000 nM; EC50 [4]: > 1000 nM; EC50 [5]: > 1000 nM; EC50 [6]: 92 nM
COc1ccc2cc(C(=O)Nc3ccc([C@H]4COCCN4)c(C)c3)c(=O)oc2c1OC(C)C [Example 90]	6.2 nM	
CCCc1c(OC)ccc2cc(C(=O)Nc3ccc(C4CCCN4)cc3)c(=O)oc12 (stereo not shown) [Example 1, 7-Methoxy-2-oxo-8-propyl-2H-chromene-3-carboxylic acid (4-pyrrolidin-2-yl-phenyl)-amide]	0.1 nM	
CCc1c(OC)ccc2cc(C(=O)Nc3ccc(C4CNCCN4)cc3)c(=O)oc12 (single isomer, unassigned) [Example 44]	0.2 nM	
COc1ccc2cc(C(=O)Nc3cccc([C@H]4COCCN4)c3)c(=O)oc2c1OC(C)C [Example 96]	2.8 nM	
CCCc1c(OC)ccc2cc(C(=O)Nc3ccc([C@H]4COCCN4)cc3)c(=O)oc12 [Example 27]	0.2 nM	
CCOc1c(OC)ccc2cc(C(=O)Nc3ccc(C4CNCCN4)cc3)c(=O)oc12 (single isomer, unassigned) [Example 53]	4.6 nM	
CCOc1ccc2cc(C(=O)Nc3ccc([C@H]4CCCN4)cc3F)c(=O)oc2c1OCC [Example 89]	12.8 nM	
COc1ccc2cc(C(=O)Nc3ccc([C@H]4CCCN4)c(F)c3)c(=O)oc2c1C [Example 72]	1.8 nM	

Continued by falling EC50 [1], values first:

EC50 [1]	SMILES	also measured
75.5 nM	COc1ccc2cc(C(=O)Nc3ccc(C4CCCCN4)cc3)c(=O)oc2c1OC(C)C (single isomer, unassigned) [Example 23]	
2.9 nM	COc1ccc2cc(C(=O)Nc3ccc(C4CNCCO4)cc3)c(=O)oc2c1OC(C)C (single isomer, unassigned) [Example 41]	
2.4 nM	Cc1cc([C@H]2CCCN2)ccc1NC(=O)c1cc2ccc(OC(C)C)c(OC(C)C)c2oc1=O [Example 82]	
0.5 nM	CCc1c(OC)ccc2cc(C(=O)Nc3ccc([C@H]4CCCN4)cc3C)c(=O)oc12 [Example 62]	
0.1 nM	CCCc1c(OC)ccc2cc(C(=O)Nc3ccc(C4CNCCN4)cc3)c(=O)oc12 (racemic) [Example 43]	
